Four compounds from ChEMBL document CHEMBL1201862, “PubChem BioAssay data set” (2004) can be followed below.

Among the test systems are NCI-H522; SK-OV-3; SK-MEL-28; U-251; OVCAR-4; TK-10; SF-268; UACC-62; ACHN; UO-31; IGROV-1; SNB-19; KM12; RPMI-8226; RXF 393; K562; SK-MEL-5.
What all share (assay): NCI-60 cell line screen, 48 h

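Following 48 hours of exposure in 96-well plates, responses at five concentrations were used to interpolate endpoints linearly. GI50 = concentration required for 50% inhibition of growth.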 The source made the active and inactive calls. Rule as the data show it: active = GI50 up to about 1.1 µM and inactive = higher.

As to `CCN(CC)Cc1cc(Nc2c3ccccc3nc3c2[nH]c2ccccc23)ccc1O`, the GI50 was 1.13 µM (inactive) in the test on NCI-H522; 2.11 µM (inactive) in the test with SK-OV-3; 1.8 µM (inactive) in the test with SK-MEL-28; 1.17 µM (inactive) in the test with U-251; 1.39 µM (inactive) in the test with OVCAR-4; 3.61 µM (inactive) with TK-10. Besides, the GI50 with SF-268 is 1.42 µM (inactive); in the test with UACC-62, 1.62 µM (inactive); in the test with ACHN, 0.875 µM (active); in the test with UO-31 it was 1.52 µM (inactive); in the test on IGROV-1, 1.16 µM (inactive); with SNB-19 it was 1.63 µM (inactive). The GI50 in the test with KM12 is 1.36 µM (inactive); in the test with RPMI-8226, 1.96 µM (inactive); in the test with RXF 393, 1.31 µM (inactive); in the test with K562, 1.87 µM (inactive); in the test with SK-MEL-5, 1.89 µM (inactive).
Regarding `CC(C)(C)NNC(=O)/C(=C/c1ccc([N+](=O)[O-])cc1)NC(=O)c1ccccc1`, the GI50 is 24.2 µM (inactive) in the test on NCI-H522; > 100 µM (inactive) with SK-OV-3; > 100 µM (inactive) in the test on SK-MEL-28; 39 µM (inactive) in the test on U-251; 75 µM (inactive) in the test with OVCAR-4; > 100 µM (inactive) in the test with TK-10. Besides, the GI50 in the test with SF-268 was 55.8 µM (inactive); in the test with UACC-62, > 100 µM (inactive); with ACHN, > 100 µM (inactive); with UO-31, > 100 µM (inactive); with IGROV-1, > 100 µM (inactive); in the test with SNB-19 it was > 100 µM (inactive). Further, the GI50 with KM12 is > 100 µM (inactive); with RPMI-8226 it was 45 µM (inactive); in the test with RXF 393, > 100 µM (inactive); in the test with K562, > 100 µM (inactive); with SK-MEL-5, > 100 µM (inactive).
For `CCCC(O)c1cn(-c2cccc(S(=O)(=O)O)c2)nn1` (stereo not drawn), the GI50 in the test on NCI-H522, in the test with SK-OV-3, with SK-MEL-28, with U-251, in the test on OVCAR-4 and with TK-10 was > 100 µM (inactive) each time. Further, the GI50 with SF-268, with UACC-62, in the test on ACHN, in the test with UO-31, in the test with IGROV-1 and in the test on SNB-19 was > 100 µM (inactive) throughout. Further, the GI50 in the test with KM12, in the test with RPMI-8226, with RXF 393, in the test with K562 and in the test on SK-MEL-5 was > 100 µM (inactive) in each case.
As for `COC(=O)C1=C(O)C(O)=C(C(=O)OC)CC1`, the GI50 in the test on NCI-H522, with SK-OV-3, in the test on SK-MEL-28, in the test on U-251, in the test on OVCAR-4 and with TK-10 was > 100 µM (inactive) throughout. Moreover, the GI50 with SF-268, with UACC-62, in the test with ACHN, in the test on UO-31, in the test with IGROV-1 and with SNB-19 was > 100 µM (inactive) in each case. Moreover, the GI50 with KM12 was > 100 µM (inactive); in the test with RPMI-8226 it was > 100 µM (inactive); with RXF 393, 17.9 µM (inactive); in the test on K562, > 100 µM (inactive); in the test with SK-MEL-5, > 100 µM (inactive).
